The subject of one data set is CYP1A2. Nature of the data set: Induction of CYP1A2 in frozen human hepatocytes. In kind it is in vitro ADME. Conditions: 72 h induction, concentration and readout not stated. The method, then:
Experimental purpose: Using frozen human hepatocytes as the test system, the induction effects of the test substances on CYP1A2, CYP2B6 and CYP3A4 were evaluated from two aspects of enzyme activity and mRNA level.
Experimental method: 24 hours after cell plating, induction was started by adding medium containing the test compound (test concentrations were 10, 1, and 0.1 μM), and fresh drug-containing medium was replaced every 24 hours. After 72 hours of induction, the medium was replaced with medium containing CYP1A2, CYP2B6, and CYP3A4 specific substrates for 30 minutes of incubation. 100 μL was taken for treatment, and the labeled metabolites of the substrates were detected to evaluate the enzyme activity level. Finally, the cells were lysed and reverse transcribed, and the expression levels of CYP1A2, CYP2B6 and CYP3A4 genes in the cells were evaluated by real-time quantitative PCR.
The induction fold of the test compound compared with the blank control and the induction percentage of the test compound compared with the positive control were used as the basis for evaluating the induction potential of the test compound. Among them, the positive control for CYP1A2 is Omeprazole; the positive control for CYP2B6 is Phenobarbital; the positive control for CYP3A4 is Rifampicin.

A further data set has as its target T1, hERG channel (Homo sapiens, UniProt Q12809).
T1 construct: expressed in transfected cells; host or cells: HEK-293 cells stably expressing hERG
In words: hERG channel current in HEK293 cells, automated patch clamp. In kind it is cell-based. The following applies: HEK-293 cells stably expressing hERG, whole-cell patch clamp, 0.3-30 μM. The method, then:
Test 2: Detection of the Effect of Compounds on hERG Channel Currents Stably Expressed in HEK293 Cells Using Automated Patch Clamp
Experimental purpose: The concentration-effect relationship of the blocking effect of the compounds on hERG channels was determined using the patch clamp technique and HEK-293 cells stably expressing hERG channels to evaluate their risk of inhibitory effect on cardiac hERG potassium channels.
Experimental method: hERG cells were clamped using the patch clamp technique to form a high-resistance seal and then the membrane was broken. The whole-cell recording mode was used to record the hERG current. Each drug concentration was set to be administered twice for at least 5 minutes. The test concentrations were 0.3 μM, 1 μM, 3 μM, 10 μM and 30 μM, and the changes of the test compounds on hERG current were observed.

The target of a further data set is T2, hTLR8 (Homo sapiens, UniProt Q9NR97).
T2 construct: expressed in transfected cells; host or cells: HEK-Blue hTLR8 cells
T2 sequence (Q9NR97 27-1041): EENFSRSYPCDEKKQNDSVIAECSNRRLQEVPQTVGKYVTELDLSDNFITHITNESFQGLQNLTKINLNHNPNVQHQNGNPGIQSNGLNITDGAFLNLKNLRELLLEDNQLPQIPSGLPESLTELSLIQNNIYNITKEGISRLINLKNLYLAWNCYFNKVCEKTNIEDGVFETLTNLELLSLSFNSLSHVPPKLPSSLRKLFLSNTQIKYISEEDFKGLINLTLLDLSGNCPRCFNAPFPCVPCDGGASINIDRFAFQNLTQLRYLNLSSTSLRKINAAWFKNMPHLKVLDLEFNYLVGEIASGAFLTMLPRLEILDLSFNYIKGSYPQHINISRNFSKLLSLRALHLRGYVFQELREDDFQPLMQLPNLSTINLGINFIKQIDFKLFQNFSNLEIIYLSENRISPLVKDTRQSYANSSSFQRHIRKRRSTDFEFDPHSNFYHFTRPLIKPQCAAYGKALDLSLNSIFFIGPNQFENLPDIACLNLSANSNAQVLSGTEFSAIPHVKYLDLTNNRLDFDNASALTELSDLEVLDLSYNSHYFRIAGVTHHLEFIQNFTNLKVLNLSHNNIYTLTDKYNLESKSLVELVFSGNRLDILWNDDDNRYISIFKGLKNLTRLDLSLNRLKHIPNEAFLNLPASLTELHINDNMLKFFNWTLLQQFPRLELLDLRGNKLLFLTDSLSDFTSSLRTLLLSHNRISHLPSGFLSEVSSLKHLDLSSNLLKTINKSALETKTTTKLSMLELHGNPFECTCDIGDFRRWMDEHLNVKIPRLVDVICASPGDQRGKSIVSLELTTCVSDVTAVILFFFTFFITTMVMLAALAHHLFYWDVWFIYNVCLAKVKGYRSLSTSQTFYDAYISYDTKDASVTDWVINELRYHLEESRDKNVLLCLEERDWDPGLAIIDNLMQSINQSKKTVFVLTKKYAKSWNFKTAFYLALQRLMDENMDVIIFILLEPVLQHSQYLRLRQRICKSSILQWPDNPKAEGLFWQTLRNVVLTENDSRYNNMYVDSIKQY
Nature of the data set: Agonistic activity on human TLR8 in HEK-Blue hTLR8 cells (QUANTI-Blue). In kind it is cell-based. Conditions: 24 h incubation, OD650, read-out: hTLR 8 EC50.

Another data set has as its target T3, CYP2D6 (Homo sapiens, UniProt P10635).
T3 construct: from tissue; host or cells: human liver microsomes
Nature of the data set: Inhibition of human liver microsomal CYP2D6. Conditions: human liver microsomes, 10 μM test substance; read-out: Relative inhibition rate (%) CYP2D6. The format is in vitro ADME. The method, then:
Experimental purpose: The inhibitory effects of the test compounds on the major metabolizing enzymes CYP1A2, CYP2C19, CYP2D6 and CYP3A4 in microsomes were evaluated using the human liver microsomal system. Experimental method: The test substance was incubated with a suspension of human liver microsomes containing cytochrome P450 enzymes CYP1A2, CYP2C19, CYP2D6 and CYP3A4 at a concentration of 10 μM in the final incubation system. The known substrates were metabolized by the corresponding single enzymes to generate specific metabolites, and the metabolites were determined by UPLC-MS/MS method. The relative inhibition rate (%) was calculated by the percentage reduction of metabolite production by the test compound and solvent DMSO in the same time period. N is the concentration value of the probe substrate metabolite and it is assumed that the […] with or without inhibitor at 0 min is 0. N+inh is the metabolite concentration in the group with inhibitor, and Nveh is the metabolite concentration in the group without inhibitor. The results of the inhibition test of the compounds of the present invention on human liver microsomal CYP enzymes are shown in Table C.
(In general: Microsomes from liver hold many membrane-bound enzymes, among them those of drug oxidation.)

The structures appear in SMILES notation.

In general, IC50 refers to the concentration needed to halve the response being measured. Read a high IC50 as weaker potency. Broadly, the EC50 is the concentration needed to bring the measured effect to its halfway point. The term inhibition denotes the share of the control response that was lost under treatment.

T1 sequence (Q12809 whole entry): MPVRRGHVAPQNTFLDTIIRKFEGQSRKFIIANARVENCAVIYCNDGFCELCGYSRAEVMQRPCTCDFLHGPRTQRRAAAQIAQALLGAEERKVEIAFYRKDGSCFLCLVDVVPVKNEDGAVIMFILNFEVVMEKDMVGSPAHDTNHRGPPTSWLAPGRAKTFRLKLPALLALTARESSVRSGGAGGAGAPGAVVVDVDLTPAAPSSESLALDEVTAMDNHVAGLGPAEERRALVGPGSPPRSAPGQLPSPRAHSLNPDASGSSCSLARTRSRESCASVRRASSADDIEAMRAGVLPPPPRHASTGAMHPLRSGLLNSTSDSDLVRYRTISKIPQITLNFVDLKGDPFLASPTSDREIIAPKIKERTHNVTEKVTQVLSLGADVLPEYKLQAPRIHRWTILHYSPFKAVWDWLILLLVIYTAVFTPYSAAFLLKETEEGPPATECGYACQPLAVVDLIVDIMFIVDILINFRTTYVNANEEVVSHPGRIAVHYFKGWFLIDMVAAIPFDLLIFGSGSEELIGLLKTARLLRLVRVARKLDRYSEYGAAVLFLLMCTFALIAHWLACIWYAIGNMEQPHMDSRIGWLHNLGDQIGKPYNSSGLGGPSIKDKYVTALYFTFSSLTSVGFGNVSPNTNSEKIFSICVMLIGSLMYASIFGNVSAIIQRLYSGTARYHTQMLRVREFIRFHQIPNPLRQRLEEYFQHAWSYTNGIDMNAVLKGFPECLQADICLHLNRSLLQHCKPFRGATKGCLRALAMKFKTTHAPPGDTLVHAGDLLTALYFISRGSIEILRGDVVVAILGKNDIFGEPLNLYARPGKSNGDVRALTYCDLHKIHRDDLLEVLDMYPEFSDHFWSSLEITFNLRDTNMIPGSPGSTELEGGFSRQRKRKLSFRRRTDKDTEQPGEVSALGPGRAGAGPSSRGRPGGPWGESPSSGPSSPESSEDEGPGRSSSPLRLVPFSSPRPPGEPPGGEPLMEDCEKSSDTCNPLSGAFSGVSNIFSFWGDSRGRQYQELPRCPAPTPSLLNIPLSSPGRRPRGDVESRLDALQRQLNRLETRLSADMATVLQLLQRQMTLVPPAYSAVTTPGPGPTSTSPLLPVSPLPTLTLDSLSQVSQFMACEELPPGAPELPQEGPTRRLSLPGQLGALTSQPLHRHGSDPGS
T3 sequence (P10635 whole entry): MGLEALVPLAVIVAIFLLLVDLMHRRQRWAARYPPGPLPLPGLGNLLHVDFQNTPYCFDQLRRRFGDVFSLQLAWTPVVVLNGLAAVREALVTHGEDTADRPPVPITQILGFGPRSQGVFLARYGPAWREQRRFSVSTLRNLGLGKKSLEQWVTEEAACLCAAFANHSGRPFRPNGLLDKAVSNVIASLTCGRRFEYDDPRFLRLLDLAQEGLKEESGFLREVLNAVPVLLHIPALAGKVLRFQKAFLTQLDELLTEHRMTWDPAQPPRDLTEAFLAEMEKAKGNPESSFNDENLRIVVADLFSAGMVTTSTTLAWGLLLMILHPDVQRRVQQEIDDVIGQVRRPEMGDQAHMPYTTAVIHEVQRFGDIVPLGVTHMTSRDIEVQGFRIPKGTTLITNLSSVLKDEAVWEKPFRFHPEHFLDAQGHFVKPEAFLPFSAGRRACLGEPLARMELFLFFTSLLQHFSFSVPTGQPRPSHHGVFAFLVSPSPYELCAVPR
Protocol for hTLR8: Purpose: HEK-Blue™ hTLR7 and HEK-Blue™ hTLR8 cells were used to detect the agonist and cytotoxic activities of compounds against hTLR7 and hTLR8.
The experimental steps were as shown below: • 1) Preparation of compound: The compound was prepared into a 20 mM stock solution with DMSO, and then the stock solution was diluted 3-fold in a gradient and added to a 96-well plate, for a total of 10 concentrations, with duplicate wells for each concentration. For negative control wells, 0.5 μL DMSO was added to each well. The final DMSO concentration was 0.5%. • 2) HEK-Blue™ hTLR7 or HEK-Blue™ hTLR8 cells were suspended in culture medium and then seeded into 96-well plates containing compounds at a cell count of 50,000 per well. The compounds and cells were incubated for 24 h at 37° C., 5% Co2. • 3) QUANTI-Blue was used for the detection solution: to a mixture of 1 mL of QB reagent and 1 mL of QB buffer was added 98 mL of sterile water, the mixture was mixed and dissolved, and then placed at room temperature for 10 min. • 4) Activity test of the compound: 20 μL of the culture supernatant in step 2) was added to each well of a 96-well plate containing 180 μL of QUANTI-Blue detection solution. After incubation at 37° C. for 1 h, the absorbance at 650 nm (OD650) was detected using a multifunctional microplate reader Flextation III. • 5) Detection of cell activity: The chemiluminescent signal (RLU) was detected using the multifunctional microplate reader Flextation III according to the instructions of Celltiter-Glo. • 6) Data analysis
Activity of compounds: OD650 values were analyzed using GraphPad Prism software, and the compound dose-effect curves were fitted to calculate the EC50 values of the compounds.

As to `CCCC[C@](C)(CO)Nc1nc(N)nc2cc(-c3cc(=O)[nH]cc3CN(C)CCOC)cnc12` [Example 21], the “CYP1A2 Induction fold relative to blank control” value in the data set with CYP1A2 is 0.6. For the same compound, on hERG channel, the IC50 was above 30 µM. For the same compound, on hTLR8, the EC50 came to 34 nM. On CYP2D6, the inhibition at 10 µM was 9.5%.
As to `C=CCCN(C)Cc1c[nH]c(=O)cc1-c1ccc2c(N[C@@](C)(CO)CCCC)nc(N)nc2c1` [Example 35], the “CYP1A2 Induction fold relative to blank control” value with CYP1A2 was 0.4. The concentration giving a half-maximal response (EC50) at hTLR8 was 79 nM. For the same compound, the inhibition at 10 µM at CYP2D6 worked out at 31.4%.
On to `CCCC[C@](C)(CO)Nc1nc(N)nc2cc(-c3cc(=O)n(C)cc3CN3CCCCC3)ccc12` [Example 8], for which, in the data set on CYP1A2, the “CYP1A2 Induction fold relative to blank control” value was 0.7. This compound also came in with an IC50 against hERG channel above 30 µM. Moreover, the EC50 on hTLR8 was found to be 42 nM. The inhibition at 10 µM on CYP2D6 was 18.1%.
In the case of `CCCCN(C)Cc1c[nH]c(=O)cc1-c1cnc2c(N[C@@](C)(CO)CCCC)nc(N)nc2c1` [Example 28, (R)-4-(2-Amino-4-((1-hydroxy-2-methylhexan-2-yl)amino)pyrido[3,2-d]pyrimidin-7-yl)-5-((butyl(methyl)amino)methyl)pyridin-2(1H)-one], the “CYP1A2 Induction fold relative to blank control” value in the data set on CYP1A2 is listed as 0.8. On hERG channel, this compound showed a half-maximal inhibitory concentration (IC50) above 30 µM. Besides, the EC50 on hTLR8 was found to be 63 nM. The inhibition at 10 µM at CYP2D6 came out at 12.9%.

Values taken from patent publication US20250163051A1, “PYRIMIDO AROMATIC RING COMPOUND AND USE THEREOF IN DRUG” (SUNSHINE LAKE PHARMA CO., LTD., priority 2022, published 2025).
